Assay results as given in paper PMC13544220, “Glycemic and bodyweight effects of GIPR coding variation reflect differences in surface expression and intrinsic functional impairment” (Science Advances, 2026).
Substitutions are numbered along the chain they refer to.

Legend:
hGIPR WT = molecular target: T1, hGIPR WT (Homo sapiens, UniProt P48546); experiment: cAMP accumulation in HEK293 cells, untagged GIPR (Eli Lilly); type: cell-based; conditions: HEK-293, untagged, 0.1% casein, (SEM, n), n=4
T1 construct: expressed in transfected cells; host or cells: HEK293, transient
T1 sequence (P48546 22-466): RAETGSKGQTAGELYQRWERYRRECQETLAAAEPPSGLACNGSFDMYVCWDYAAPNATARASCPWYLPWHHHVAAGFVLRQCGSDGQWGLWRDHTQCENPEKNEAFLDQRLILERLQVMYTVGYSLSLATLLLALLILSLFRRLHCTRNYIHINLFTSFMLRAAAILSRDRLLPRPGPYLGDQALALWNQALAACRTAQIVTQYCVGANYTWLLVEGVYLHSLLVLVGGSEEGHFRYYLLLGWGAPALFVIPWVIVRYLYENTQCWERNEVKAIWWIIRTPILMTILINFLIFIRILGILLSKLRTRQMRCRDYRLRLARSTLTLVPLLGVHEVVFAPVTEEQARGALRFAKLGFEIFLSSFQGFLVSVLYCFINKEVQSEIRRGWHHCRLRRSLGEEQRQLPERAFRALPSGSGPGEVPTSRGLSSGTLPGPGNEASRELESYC

[1] = molecular target: T2, wild-type and variant SNAP-GIPR (Homo sapiens, UniProt P48546, E354Q); experiment: cAMP concentration response (HTRF) in AD293 cells, SNAP-GIPR; type: cell-based; conditions: AD293, SNAP-GIPR E354Q, 0.1% BSA
T2 construct: the endogenous GIPR signal peptide was removed and replaced with a SNAPf tag; host or cells: AD293 (adherent HEK293), transient transfection
T2 sequence (P48546 22-466 E354Q): T1 sequence (P48546 22-466) with E333Q
Method: (Imperial College London): 24 hours before the experiment, AD293 cells were reverse transfected with the GIPR variant or wild-type plasmids using Lipofectamine 2000 in 12-well plates. All variants were tested in parallel on each occasion to control for transfection efficiency differences between experiments. […] Data were fit using a three-parameter logistic model using GraphPad Prism 10.

[2] = tested on: membranes from untransfected HEK293 cells; experiment: [125I]GIP(1-42)OH radioligand binding, untransfected control; parameters: species or system human; conditions: either assay condition
Method: Radioligand binding to the GIPR variant receptors was performed using the assay procedure described in ([59]) with some slight modification in the buffer. […] A3782), and 25 mM Hepes (Gibco, catalog no. […] The assay was incubated overnight at 25°C and then centrifuged at 1000 rpm (Beckman Coulter, Avanti J-15R).

CC[C@H](C)[C@H](NC(=O)[C@H](CC(C)C)NC(=O)[C@H](Cc1c[nH]c2ccccc12)NC(=O)[C@H](CCC(N)=O)NC(=O)[C@@H](NC(=O)[C@H](Cc1ccccc1)NC(=O)[C@H](C)NC(=O)[C@H](CCCCNC(=O)COCCOCCNC(=O)COCCOCCNC(=O)CC[C@H](NC(=O)CCCCCCCCCCCCCCCCCCC(=O)O)C(=O)O)NC(=O)[C@H](CCC(N)=O)NC(=O)[C@H](C)NC(=O)[C@@H](NC(=O)[C@H](CCCCN)NC(=O)[C@H](CC(=O)O)NC(=O)[C@H](CC(C)C)NC(=O)C(C)(C)NC(=O)[C@@H](NC(=O)[C@H](CO)NC(=O)[C@H](Cc1ccc(O)cc1)NC(=O)[C@H](CC(=O)O)NC(=O)[C@H](CO)NC(=O)[C@@H](NC(=O)[C@H](Cc1ccccc1)NC(=O)[C@@H](NC(=O)CNC(=O)[C@H](CCC(=O)O)NC(=O)C(C)(C)NC(=O)[C@@H](N)Cc1ccc(O)cc1)[C@@H](C)O)[C@@H](C)O)[C@@H](C)CC)[C@@H](C)CC)C(C)C)C(=O)N[C@@H](C)C(=O)NCC(=O)NCC(=O)N1CCC[C@H]1C(=O)N[C@@H](CO)C(=O)N[C@@H](CO)C(=O)NCC(=O)N[C@@H](C)C(=O)N1CCC[C@H]1C(=O)N1CCC[C@H]1C(=O)N1CCC[C@H]1C(=O)N[C@@H](CO)C(N)=O [tirzepatide]
Emax (hGIPR WT): 90.6% | cAMP signaling (∆LogEmax/EC50) [1]: increased cAMP signaling

[125I]GIP(1-42)OH: radioligand [125I]GIP(1-42)OH (Revvity)
specific binding, untransfected HEK293 membranes [2]: no significant specific binding detected
